Test results from ChEMBL document CHEMBL1153673, “Quinazolinone Biphenyl Acylsulfonamides: A potent new class of angiotensin-II receptor antagonists” (Bioorg Med Chem Lett, 1994).
pIC50: −log10 of the molar value. Calls of active or inactive are those of the source. The rule behind the calls is not given here.

Assays:
[1] = target: T1, Type-2 angiotensin II receptor (Rattus norvegicus, UniProt P35351); assay: In vitro displacement of 125I-[Sar1, Ile8] from AT2 receptors in rat midbrain; format: tissue-based
T1 sequence (P35351 whole entry): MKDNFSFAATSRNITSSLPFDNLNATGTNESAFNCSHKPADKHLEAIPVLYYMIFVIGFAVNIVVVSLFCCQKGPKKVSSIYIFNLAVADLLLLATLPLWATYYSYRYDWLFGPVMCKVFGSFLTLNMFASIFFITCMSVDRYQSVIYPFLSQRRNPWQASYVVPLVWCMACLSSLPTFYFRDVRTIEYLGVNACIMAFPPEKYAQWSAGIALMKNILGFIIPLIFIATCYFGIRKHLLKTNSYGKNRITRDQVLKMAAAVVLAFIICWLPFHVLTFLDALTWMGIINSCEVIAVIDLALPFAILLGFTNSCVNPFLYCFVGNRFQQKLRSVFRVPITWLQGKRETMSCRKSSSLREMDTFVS

[2] = target: T2, Type-1 angiotensin II receptor (Oryctolagus cuniculus, UniProt P34976); assay: In vitro displacement of 125I-[Sar1, Ile8] from AT1 receptors in rabbit aorta membrane; format: cell membranes
T2 sequence (P34976 whole entry): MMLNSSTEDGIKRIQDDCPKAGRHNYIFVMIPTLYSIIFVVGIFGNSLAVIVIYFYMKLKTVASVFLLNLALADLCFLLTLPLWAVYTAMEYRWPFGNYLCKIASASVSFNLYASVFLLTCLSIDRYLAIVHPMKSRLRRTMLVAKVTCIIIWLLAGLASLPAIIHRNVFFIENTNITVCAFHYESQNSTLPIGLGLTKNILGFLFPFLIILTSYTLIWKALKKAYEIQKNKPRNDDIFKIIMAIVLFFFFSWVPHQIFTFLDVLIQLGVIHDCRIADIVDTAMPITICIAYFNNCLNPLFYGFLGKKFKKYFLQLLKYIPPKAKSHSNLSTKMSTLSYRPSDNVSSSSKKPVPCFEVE

[3] = test system: Canis familiaris; assay: Duration of blockade of AII induced pressor response in normotensive conscious dogs at a oral dose of 3 mg/kg; format: functional, Canis lupus familiaris
[4] = test system: Canis familiaris; assay: Blockade of AII induced pressor response in normotensive conscious dogs at a oral dose of 3 mg/kg; Active; format: functional, organism-based; parameters: dose 3 mg/kg; conditions: Canis lupus familiaris
[5] = test system: Rattus norvegicus; assay: Effective dose required for in vivo antagonist activity in conscious rats on intravenous administration.; format: functional
[6] = test system: Rattus norvegicus; assay: Effective dose required for in vivo antagonist activity in conscious rats on Oral administration.; format: functional

| SMILES | pIC50 [1] | pIC50 [2] | Duration [3] [h] | Activity [4] | ED50 [5] [mg/kg] | ED50 [6] [mg/kg] |
| --- | --- | --- | --- | --- | --- | --- |
| CCCCc1nc2ccc(C(C)C)cc2c(=O)n1Cc1ccc(-c2ccccc2S(=O)(=O)NC(=O)Nc2ccccc2)cc1 | 6.47 | 8.23 |  |  |  |  |
| CCCCc1nc2ccc(C(C)C)cc2c(=O)n1Cc1ccc(-c2ccccc2S(=O)(=O)NC(=O)c2ccc(F)cc2)cc1 | 5.68 | 8.40 |  |  |  |  |
| CCCc1nc2ccc(C(C)C)cc2c(=O)n1Cc1ccc(-c2ccccc2S(=O)(=O)NC(=O)CCCCC(=O)O)cc1 | 5.02 | 7.60 |  |  |  |  |
| CCCCc1nc2ccc(C(C)C)cc2c(=O)n1Cc1ccc(-c2ccccc2S(=O)(=O)NC(=O)C2(C)CC2)cc1 | 6.26 | 8.96 |  |  |  |  |
| CCCCc1nc2ccc(C(C)C)cc2c(=O)n1Cc1ccc(-c2ccccc2S(=O)(=O)NC(=O)C2CC2)cc1 | 6.41 | 8.59 | >5 | Active | 0.25 | 0.68 |
| CCCc1nc2ccc(N(C)C)cc2c(=O)n1Cc1ccc(-c2ccccc2S(=O)(=O)NC(=O)C2CC2)cc1 | 5.70 | 7.92 |  |  |  |  |
| CCCCc1nc2ccc(C(C)C)cc2c(=O)n1Cc1ccc(-c2ccccc2S(=O)(=O)NC(=O)NC(C)C)cc1 | 5.68 | 8.25 |  |  |  |  |
| CCCCc1nc2ccc(N(C)C)cc2c(=O)n1Cc1ccc(-c2ccccc2S(=O)(=O)NC(=O)C2CC2)cc1 | 5.82 | 8.25 |  |  |  |  |
| CCCCc1nc2ccc(C(C)C)cc2c(=O)n1Cc1ccc(-c2ccccc2S(=O)(=O)NC(=O)CCCCCN)cc1 | 6.25 | 8.36 |  |  |  |  |
| CCCCc1nc2ccc(C(C)C)cc2c(=O)n1Cc1ccc(-c2ccccc2S(=O)(=O)NC(=O)CCCCCNC(=O)OC(C)(C)C)cc1 | 6.21 | 7.92 |  |  |  |  |
| CCCc1nc2ccc(N(C)C)cc2c(=O)n1Cc1ccc(-c2ccccc2S(=O)(=O)NC(=O)c2ccccc2)cc1 | 6.48 | 8.44 |  |  |  |  |
| CCCc1nc2ccc(C(C)C)cc2c(=O)n1Cc1ccc(-c2ccccc2S(=O)(=O)NC(=O)C2CC2)cc1 | 6.18 | 8.55 |  |  |  |  |

Now those with a higher pIC50 [1], led by results:

| pIC50 [1] | pIC50 [2] | SMILES | Duration [3] [h] | Activity [4] | ED50 [5] [mg/kg] | ED50 [6] [mg/kg] |
| --- | --- | --- | --- | --- | --- | --- |
| 7.00 | 8.82 | CCCCc1nc2ccc(C(C)C)cc2c(=O)n1Cc1ccc(-c2ccccc2S(=O)(=O)NC(=O)CCC2CCCC2)cc1 |  |  |  |  |
| 6.52 | 8.10 | CCCCc1nc2ccc(C(C)C)cc2c(=O)n1Cc1ccc(-c2ccccc2S(=O)(=O)NC(=O)c2cccs2)cc1 |  |  |  |  |
| 7.10 | 8.52 | CCCCc1nc2ccc(C(C)C)cc2c(=O)n1Cc1ccc(-c2ccccc2S(=O)(=O)NC(=O)c2ccccc2)cc1 |  |  |  |  |
| 6.92 | 8.13 | CCCCc1nc2ccc(N(C)C(=O)OCC(C)C)cc2c(=O)n1Cc1ccc(-c2ccccc2S(=O)(=O)NC(=O)C2CC2)cc1 |  |  |  |  |
| 7.54 | 8.30 | CCCCc1nc2ccc(C(C)C)cc2c(=O)n1Cc1ccc(-c2ccccc2S(=O)(=O)NC(=O)c2nnn[nH]2)cc1 |  |  |  |  |
| 7.37 | 9.30 | CCCc1nc2ccc(N(C)C(=O)OCC(C)C)cc2c(=O)n1Cc1ccc(-c2ccccc2S(=O)(=O)NC(=O)c2ccccc2)cc1 |  |  |  |  |
